Test results reported in US4847273A, “Dihydropyridine derivatives” (Hoffmann-La Roche Inc., priority 1985, dated 1989).

What was measured:
[1] = tested on: ^3 H-nifedipine (or ^3 H-nitrendipine) binding, rabbit or guinea pig heart membranes; experiment: 3H-Nifedipine binding determination on homogenates or partially-cleaned membranes of rabbit or guinea pig heart (test A); settings: maximum inhibition of specific binding; nifedipine established as 100%
Experimental: A. ^3 H-Nifedipine binding determination:
The determination is carried out on homogenates or on partially-cleaned membranes of rabbit or guinea pig heart. The reaction mixture (0.3 ml) consists of 0.2-0.8 mg of membrane protein, 1 nM of ^3 H-nifedipine (or 0.25 nM of ^3 H-nitrendipine) and various concentrations of the test substance. The incubation lasts 30 minutes at 25° C. or 37° C. and is stopped by dilution with the incubation buffer; a filtration is subsequently carried out. The filter-bound radioactivity is measured with a scintillation counter. Specific binding, that is, receptor-bound, is defined as the difference between total and unspecific-bound radioactivity. The unspecific binding is determined in the presence of an excess of non-radioactive nifedipine (1 μM).
The activity (potency) of a compound in this test is defined by the IC50 and %maximum inhibition values (%max. inhibition). The IC50 is the substance concentration (in mol/l) which produces a half-maximum inhibition of the specific ^3 H-nifedipine (or ^3 H-nitrendipine) binding. The maximum inhibition of the specific binding is given by the %maximum inhibition value; this value is established as 100% for the reference compound nifedipine. Both parameters are extrapolated from a concentration-binding curve.

[2] = Haemodynamic parameters in the narcotized dog (test B); assay type: in vivo; settings: 0.03 mg/kg p.o.
Description: B. Haemodynamic parameters in the narcotized dog:
The 4 most important measurement parameters (with respective measurement units) of the haemodynamic experiment are: (1) CBF: Coronary Blood Flow (in ml/min)--the velocity of blood flow through the coronary arteries; (2) HR: heart rate (in beats/min)--the heart frequency; (3) BP: blood pressure (in mm Hg)--the blood pressure; and (4) dp/dt: rate of increase in left ventricular pressure (in mm Hg/sec)--the rate of increase of the left ventricular pressure, as a measurement of the contractility force of the heart. The values are given as the %maximum variation from the initial value (Δ%) and the duration of this variation (t) per dosage administered.
There is thus obtained not only an overall picture of the activity of the substance, but also an estimation as to the potential selectivity for a specific part of the circulatory system in the entire organism. After the administration of an anaesthetic, the dog is intubated and respired artificially. Blood pH, pCO2, pO2 and haemoglobin are measured hourly with a blood-gas analyzer. The blood pressure (systolic and diastolic) is measured with a probe in the aorta abdominalis. The heart frequency is recorded by means of a tachometer, which is disengaged from the pressure pulse. For the other measurements the heart must firstly be opened in order that a probe can be inserted in the left ventricle (heart chamber) for the pressure measurements (dp/dt). The coronary blood flow is measured with a flowing probe in the left coronary artery (descendens).

| Compound | % max. inhib. [1] | Bp (blood pressure), % maximum variation from the initial value (Δ%) [2] | Bp, duration of variation (t) [2] | CBF (Coronary Blood Flow), % maximum variation from the initial value (Δ%) [2] | CBF, duration of variation (t) [2] | HR (heart rate), % maximum variation from the initial value (Δ%) [2] | HR, duration of variation (t) [2] | dp/dt (rate of increase in left ventricular pressure), % maximum variation from the initial value (Δ%) [2] | dp/dt, duration of variation (t) [2] |
| --- | --- | --- | --- | --- | --- | --- | --- | --- | --- |
| CCCCN(C)S(=O)(=O)C1=C(C)NC(C)=C(C(=O)OC(C)C)C1c1cccc([N+](=O)[O-])c1 (stereo not drawn) [B, 5-(butylmethylsulfamoyl)-1,4-dihydro-2,6-dimethyl-4-(3-nitrophenyl)nicotinic acid isopropyl ester] | 100% | -30% | 24 ' | 78% | 40 ' | -11% | > 30 ' | -2% | 20 ' |
| CCCOCCOC(=O)C1=C(C)NC(C)=C(S(=O)(=O)N(C)C)C1c1cccc([N+](=O)[O-])c1 (stereo not drawn) [A, 5-(dimethylsulfamoyl)-1,4-dihydro-2,6-dimethyl-4-(3-nitrophenyl)nicotinic acid 2-propoxyethyl ester] | 100% | -55% | 60 ' | 50% | 60 ' | -19% | 40 ' | -42% | 60 ' |
| COCCN(C)S(=O)(=O)C1=C(C)NC(C)=C(C(=O)OC(C)C)C1c1cccc([N+](=O)[O-])c1 (stereo not drawn) [C, 1,4-dihydro-2,6-dimethyl-5-[(2-methoxyethyl)methylsulfamoyl]-4-(3-nitrophenyl)nicotinic acid isopropyl ester] | 100% | -32% | > 60 ' | 108% | 20 ' | -11% | > 60 ' | -16% | > 60 ' |
